According to patent publication US20230331803A1, “CO-AGONISTS OF THE GLP-1 AND AMYLIN RECEPTORS” (priority 2020, published 2023):
Where two headings read alike, the source gives them in different places. Starred links: 1 amine or outer side, 2 acyl side, 3 side chain; linkers in the order of their positions; H or OH if unused. Non-standard residues stand in square brackets, D forms with d. Groups on a side chain read outwards from the residue. *: point of attachment. Decanoyl(10-(4-HOOC-PhO)) = O=C(O)c1ccc(OCCCCCCCCCC(=O)*)cc1; C20 diacid = O=C(O)CCCCCCCCCCCCCCCCCCC(=O)*; C18 diacid = O=C(O)CCCCCCCCCCCCCCCCC(=O)*; γGlu = O=C(O)[C@H](CCC(=O)[*:2])N[*:1]; εLys = N[C@@H](CCCCN[*:1])C(=O)[*:2]; Trx = NC[C@H]1CC[C@H](C(=O)O)CC1; AEEA = NCCOCCOCC(=O)O; Aib = CC(C)(N)C(=O)O

B1: HWEGTFTSDVSSYLEEQAAR-K([2-[2-[2-[[2-[2-[2-[[(4S)-4-Carboxy-4-[[4-[(19-Carboxynonadecanoylamino)Methyl]Cyclohexanecarbonyl]Amino]Butanoyl]Amino]Ethoxy]Ethoxy]Acetyl]Amino]Ethoxy]Ethoxy]Acetyl])-FIEWLVR … (peptide)
peptide: HWEGTFTSDVSSYLEEQAARK([AEEA-AEEA-γGlu-4‑(aminomethyl)cyclohexanecarbonyl-C20 diacid])FIEWLVRGRGEGGGGGASELSTAALGRLSAELHELATLPRTETGSGSP-NH2
B2: H-Aib-EGTFTSDVS-K([2-[2-[2-[[2-[2-[2-[[(4S)-4-Carboxy-4-[[4-[(19-Carboxynonadecanoylamino)Methyl]Cyclohexanecarbonyl]Amino]Butanoyl]Amino]Ethoxy]Ethoxy]Acetyl]Amino]Ethoxy]Ethoxy]Acetyl])-YLEEQAAREFIA … (peptide)
peptide: H-H[Aib]EGTFTSDVSK([AEEA-AEEA-γGlu-4‑(aminomethyl)cyclohexanecarbonyl-C20 diacid])YLEEQAAREFIAWLVRGRGGGGGEASELSTAALGRLSAELHELATLPRTETGSGSP-NH2
B3: H-Aib-EGTFTSDVSSYLEEQAAREFIAWLVRGRP-K([2-[2-[2-[[2-[2-[2-[[(4S)-4-Carboxy-4-[[4-[(19-Carboxynonadecanoylamino)Methyl]Cyclohexanecarbonyl]Amino]Butanoyl]Amino]Ethoxy]Ethoxy]Acetyl]Amino]Ethoxy]Ethoxy]A … (peptide)
peptide: H[Aib]EGTFTSDVSSYLEEQAAREFIAWLVRGRPK([AEEA-AEEA-γGlu-4‑(aminomethyl)cyclohexanecarbonyl-C20 diacid])GGGGEASELSTAALGRLSAELHELATLPRTETGSGSP-NH2
B4: H-Aib-EGTFTSDVSSYLEEQAAREFIAWLVRGR-K([(2S)-2-Amino-6-[[2-[2-[2-[[2-[2-[2-[[(4S)-4-Carboxy-4-[[4-[(19-Carboxynonadecanoylamino)Methyl]Cyclohexanecarbonyl]Amino]Butanoyl]Amino]Ethoxy]Ethoxy]Acetyl]Amino … (peptide)
peptide: H[Aib]EGTFTSDVSSYLEEQAAREFIAWLVRGRK([εLys-AEEA-AEEA-γGlu-4‑(aminomethyl)cyclohexanecarbonyl-C20 diacid])GGGGEASELSTAALGRLSAELHELATLPRTETGSGSP-NH2

What was measured:
[1] = Pharmacokinetic studies in Beagle dogs after oral administration of SNAC-based tablets; type: in vivo; details: dogs, oral administration (tablet); for half-life: read-out: T½ (converted)
Experimental: To be able to evaluate oral exposure following tablet dosing, tablet compositions comprising the test substance and SNAC (sodium N-(8-(2-hydroxybenzoyl)amino)caprylate) were prepared by mixing test substance with roller compacted SNAC and magnesium stearate as, e.g., described in WO 2019/149880. The amount of SNAC in the tablet composition was 100-300 mg, the amount of magnesium stearate in the tablet composition was 7.7 mg, and the target amount of each test substance in the tablet composition was 3-4 mg.
Pharmacokinetic (PK) studies in Beagle dogs were conducted to determine the exposure of the GLP-1 receptor-amylin receptor co-agonist after peroral administration.
For the pharmacokinetic studies male Beagle dogs were used, 2-7, or 1 to 5, years of age and weighing approximately 10-15, such as 10-12, kg at the start of the studies. The dogs were group housed in pens (12 hours light: 12 hours dark),and fed individually and restrictedly once daily with Royal Canin Medium Adult dog (Royal Canin Products, China Branch, or Brogaarden A/S, Denmark). Exercise and group social were permitted daily, whenever possible. The dogs were used for repeated pharmacokinetic studies with a suitable wash-out period between successive dosing. An appropriate acclimatisation period was given prior to initiation of the first pharmacokinetic study. All handling, dosing and blood sampling of the animals were performed by trained and skilled staff. Before the studies the dogs were fasted overnight and from 0 to 4 h after dosing. Besides, the dogs were restricted to water 1 hour before dosing until 4 hours after dosing, but otherwise have ad libitum access to water during the whole period.
The tablets used for the p.o. studies described herein were immediate release SNAC-based tablets dosed orally.
The tablets were administered in the following manner: 10 min prior to tablet administration the dogs may be dosed subcutaneously with approximately 3 nmol/kg of SEQ ID NO: 237, tablets were placed in the back of the mouth of the dog to prevent chewing. The mouth was then closed, and 10 mL of tap water was given by a syringe or gavage to facilitate swallowing of the tablet.
Blood was sampled at predefined time points for up till 240 hours, such as up till 10 hr, post dosing to adequately cover the full plasma concentration-time absorption profile of the GLP-1 agonist.
For each blood sampling time point approximately 0.8 mL of whole blood was collected in a 1.5 mL EDTA coated tube, and the tube was gently turned to allowing mixing of the sample with the EDTA. Blood samples (for example 0.8 mL) were collected in EDTA buffer (8 mM) and then centrifuged at 4° C. and 2000 G for 10 minutes. Plasma was pipetted into Micronic tubes on dry ice, and kept at -20° C. until analysis.
Blood samples were taken as appropriate, for example from a venflon in the cephalic vein in the front leg for the first 2 hours and then with syringe from the jugular vein for the rest of the time points (the first few drops were allowed to drain from the venflon to avoid heparin saline from the venflon in the sample).
Plasma concentration of the GLP-1 receptor-amylin receptor co-agonists were determined using LCMS. Individual plasma concentration-time profiles were analysed by a non-compartmental model in WinNonlin v. 5.0 or Phoenix v. 6.2 or 6.3 (Pharsight Inc., Mountain View, CA, USA), or other relevant software for PK analysis.
The individual plasma concentration-time profiles were analysed by non-compartmental analysis (NCA).

human GLP-1 receptor = biological target: T1, human GLP-1 receptor (Homo sapiens, UniProt P43220); test: Human GLP-1 receptor in vitro potency assay (CRE-luciferase reporter, BHK cells); type: cell-based
T1 construct: expressed in transfected cells; host or cells: BHK (Baby Hamster Kidney) cells, clone BHK 467-12A KZ-10, stably transfected, with CRE-luciferase reporter
Experimental: It is thus possible to measure GLP-1 receptor activity using a CRE-luciferase reporter gene introduced into Baby Hamster Kidney (BHK) cells co-expressing the GLP-1 receptor.
Cells were aliquoted and stored at -180° C. until use.
Plates were sealed and incubated at room temperature with gentle shaking for 30 minutes while protected from light. Luminescence was detected on a luminescence plate reader e.g. a Synergy 2 (BioTek).

[2] = biological target: T2, human amylin receptor (hAmyR3) (Homo sapiens, UniProt O60896+P30988); test: Human amylin receptor in vitro potency assay (CRE-luciferase reporter, BHK cells); type: cell-based;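 note: BHK cells expressing human calcitonin receptor plus RAMP3 (amylin-3 receptor) with a CRE-luciferase reporter, agonist activity read as luminescence from cAMP-driven transcription, 7-point serial dilutions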
T2 construct: host or cells: BHK cells (Hollex-1 line: human calcitonin receptor (a) + CRE-Luc), further transfected with human RAMP3

Sprague Dawley (SD) rats = test: Acute food intake in ad libitum fed rats after a single subcutaneous administration; type: in vivo, rat; details: Table 6a, rat, single administration;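 note: food intake monitored in the HM2 system, three rats per cage kept on a reversed light cycle, with food and water freely available after the subcutaneous dose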
From the text: Sprague Dawley (SD) rats from Taconic Europe, Denmark were used for the acute food intake experiments, wherein the principles of laboratory animal care were followed.
The rats arrived at least 10-14 days before the start of the experiment to allow acclimatisation to experimental settings. During this period, the animals were handled at least 2 times. Immediately upon arrival, rats were put on a reversed light cycle (dark from 11am - 11pm) and put in the HM2 system and ID chipped. Three rats were housed in each cage. […] The rats were dosed once according to body weight with a 0.01-3 mg/kg solution administered subcutaneously (sc). The time of dosing was recorded for each group.
After dosing, the rats were returned to their home cages, where they had access to food and water. […] At the end of the experimental session, the animals were euthanised.

[3] = male, Beagle, dog, in vivo, read-out: Tmax
[4] = Table 4a, BHK cells expressing human GLP-1R, CRE-Luc, 3 hours, read-out: Human GLP-1R potency [EC50 (pM)]
[5] = Table 4a, BHK hAmyR3/CRE-Luc cells, 3 hours, read-out: Human AmyR3 potency [EC50 (pM)]

T2 sequence (P30988 25-474): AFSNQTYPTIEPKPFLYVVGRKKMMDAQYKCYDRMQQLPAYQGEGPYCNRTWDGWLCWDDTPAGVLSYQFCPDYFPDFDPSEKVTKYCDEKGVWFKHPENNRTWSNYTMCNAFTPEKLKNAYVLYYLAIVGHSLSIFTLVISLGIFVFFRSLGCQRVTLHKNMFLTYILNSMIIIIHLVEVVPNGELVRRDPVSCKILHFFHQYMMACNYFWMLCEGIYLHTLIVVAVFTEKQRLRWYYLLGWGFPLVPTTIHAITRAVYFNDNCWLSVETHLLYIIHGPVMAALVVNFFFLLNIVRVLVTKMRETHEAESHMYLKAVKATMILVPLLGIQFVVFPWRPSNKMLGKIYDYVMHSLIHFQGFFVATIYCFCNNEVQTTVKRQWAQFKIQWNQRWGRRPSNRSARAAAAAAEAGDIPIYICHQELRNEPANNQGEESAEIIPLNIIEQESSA
T2 sequence (O60896 24-148): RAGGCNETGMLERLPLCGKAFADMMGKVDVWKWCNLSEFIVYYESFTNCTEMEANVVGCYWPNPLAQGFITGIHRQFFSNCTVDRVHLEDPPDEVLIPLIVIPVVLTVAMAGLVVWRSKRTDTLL
T1 sequence (P43220 24-463): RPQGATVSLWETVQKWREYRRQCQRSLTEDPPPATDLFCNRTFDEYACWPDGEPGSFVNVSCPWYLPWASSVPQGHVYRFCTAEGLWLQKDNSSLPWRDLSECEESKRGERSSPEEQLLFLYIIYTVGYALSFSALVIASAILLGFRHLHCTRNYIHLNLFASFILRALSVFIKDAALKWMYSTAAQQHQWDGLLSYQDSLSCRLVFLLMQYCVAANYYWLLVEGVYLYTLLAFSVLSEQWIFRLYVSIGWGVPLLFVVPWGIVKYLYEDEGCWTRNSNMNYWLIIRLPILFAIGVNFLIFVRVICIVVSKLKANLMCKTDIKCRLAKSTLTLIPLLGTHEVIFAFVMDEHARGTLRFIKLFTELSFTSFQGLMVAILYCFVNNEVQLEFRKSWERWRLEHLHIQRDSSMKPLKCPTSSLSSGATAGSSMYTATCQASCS

Molecule	AUC/D [1]	Cmax/D [1]	Tmax [1, 3]	half-life ([1]; male, Beagle, dog, in vivo)	EC50 (human GLP-1 receptor)	EC50 [2]	Food intake relative to vehicle (%) 0-24 hr, 10 nmol/kg (Sprague Dawley (SD) rats)	Food intake relative to vehicle (%) 24-48 hr, 10 nmol/kg (Sprague Dawley (SD) rats)	EC50 (human GLP-1 receptor; [4])	EC50 [2, 5]	Tmax [1]	T½ [1]
CC[C@H](C)[C@H](NC(=O)[C@H](Cc1ccccc1)NC(=O)[C@H](CCC(=O)O)NC(=O)[C@H](CCCNC(=N)N)NC(=O)[C@H](C)NC(=O)[C@H](C)NC(=O)[C@H](CCC(N)=O)NC(=O)[C@H](CCC(=O)O)NC(=O)[C@H](CCC(=O)O)NC(=O)[C@H](CC(C)C)NC(=O)[C@H](Cc1ccc(O)cc1)NC(=O)[C@H](CO)NC(=O)[C@H](CO)NC(=O)[C@H](CCCCNC(=O)COCCOCCNC(=O)COCCOCCNC(=O)CC[C@H](NC(=O)[C@H]1CC[C@H](CNC(=O)CCCCCCCCCCCCCCCCCCC(=O)O)CC1)C(=O)O)NC(=O)[C@H](CC(=O)O)NC(=O)[C@H](CO)NC(=O)[C@@H](NC(=O)[C@H](Cc1ccccc1)NC(=O)[C@@H](NC(=O)CNC(=O)[C@H](CCC(=O)O)NC(=O)C(C)(C)NC(=O)[C@@H](N)Cc1c[nH]cn1)[C@@H](C)O)[C@@H](C)O)C(=O)N[C@@H](CCC(=O)O)C(=O)N[C@@H](Cc1c[nH]c2ccccc12)C(=O)N[C@@H](CC(C)C)C(=O)N[C@H](C(=O)N[C@@H](CCCNC(=N)N)C(=O)NCC(=O)N[C@@H](CCCNC(=N)N)C(=O)NCC(=O)N[C@@H](CCC(=O)O)C(=O)N[C@@H](C)C(=O)N[C@@H](CO)C(=O)N[C@@H](CCC(=O)O)C(=O)N[C@@H](CC(C)C)C(=O)N[C@@H](CO)C(=O)N[C@H](C(=O)N[C@@H](C)C(=O)N[C@@H](C)C(=O)N[C@@H](CC(C)C)C(=O)NCC(=O)N[C@@H](CCCNC(=N)N)C(=O)N[C@@H](CC(C)C)C(=O)N[C@@H](CO)C(=O)N[C@@H](C)C(=O)N[C@@H](CCC(=O)O)C(=O)N[C@@H](CC(C)C)C(=O)N[C@@H](Cc1c[nH]cn1)C(=O)N[C@@H](CCC(=O)O)C(=O)N[C@@H](CC(C)C)C(=O)N[C@@H](C)C(=O)N[C@H](C(=O)N[C@@H](CC(C)C)C(=O)N1CCC[C@H]1C(=O)N[C@@H](CCCNC(=N)N)C(=O)N[C@H](C(=O)N[C@@H](CCC(=O)O)C(=O)N[C@H](C(=O)NCC(=O)N[C@@H](CO)C(=O)NCC(=O)N[C@@H](CO)C(=O)N1CCC[C@H]1C(N)=O)[C@@H](C)O)[C@@H](C)O)[C@@H](C)O)[C@@H](C)O)C(C)C [Compound 0440]	5.78 kg·h/L	0.29 kg/L	1.8 h	32 h	5.7 pM	10.4 pM	81%	77%	–	–	–	–
H-HWEGTFTSDVSSYLEEQAARK([AEEA-AEEA-γGlu-Decanoyl(10-(4-HOOC-PhO))])FIEWLVRGRGEGGGGGASELSTAALGRLSAELHELK([AEEA-AEEA-γGlu-Decanoyl(10-(4-HOOC-PhO))])TLPRTETGSGSP-NH2 [Compound 0232]	2.00 kg·h/L	0.51 kg/L	0.8 h	4 h	6.4 pM	74.2 pM	61%	95%	–	–	–	–
H-HWEGTFTSDVSSYLEEQAARK([AEEA-AEEA-γGlu-Decanoyl(10-(4-HOOC-PhO))])FIEWLVRGRGEGGGGGASELSTAALGRLSK([AEEA-AEEA-γGlu-Decanoyl(10-(4-HOOC-PhO))])ELHELATLPRTETGSGSP-NH2 [Compound 0231]	0.83 kg·h/L	0.27 kg/L	1 h	6 h	5.6 pM	68 pM	27%	76%	–	–	–	–
HWEGTFTSDVSSYLEEK([εLys-AEEA-AEEA-γGlu-Trx-C20 diacid])AAREFIEWLVRGRGEASELSTAALGRLSAELHELATLPRTETGSGSP-NH2 [Compound 0434]	–	–	–	–	–	–	39%	105%	11.8 pM	13.9 pM	–	–
HWEGTFTSDVSSYLEEQAARK([AEEA-AEEA-γGlu-Decanoyl(10-(4-HOOC-PhO))])FIEWLVRGK([AEEA-AEEA-γGlu-Decanoyl(10-(4-HOOC-PhO))])GEGGGGGEASELSTAALGRLSAELHELATLPRTETGSGSP-NH2 [Compound 0100]	–	–	–	–	6.8 pM	30.4 pM	85%	86%	–	–	–	–
H[Aib]EGTFTSDVSSYLEEQAARK([AEEA-AEEA-γGlu-C18 diacid])FIAWLVRGRK([AEEA-AEEA-γGlu-C18 diacid])GGEASELSTAALGRLSAELHELATLPRTETGSGSP-NH2 [Compound 0116]	–	–	–	–	–	–	83%	82%	1.5 pM	21.7 pM	–	–
H[Aib]EGTFTSDVSSYLEEQAARK([γGlu-C18 diacid])FIAWLVRGRK([γGlu-C18 diacid])EASELSTAALGRLSAELHELATLPRTETGSGSP-NH2 [Compound 0131]	–	–	–	–	–	–	70%	80%	16.1 pM	14.5 pM	–	–
B1	19.54 kg·h/L	0.36 kg/L	–	–	–	–	71%	46%	–	–	1.8 h	40 h
B2	11.10 kg·h/L	0.45 kg/L	–	–	–	–	50%	45%	–	–	2.0 h	27 h
B3	3.25 kg·h/L	0.12 kg/L	–	–	–	–	73%	53%	–	–	3.0 h	25 h
B4	6.53 kg·h/L	0.14 kg/L	–	–	–	–	47%	44%	–	–	2.0 h	23 h
